The values below come from ChEMBL document CHEMBL1138149, “Optimization of a privileged structure leading to potent and selective human melanocortin subtype-4 receptor ligands” (Bioorg Med Chem Lett, 2006).

Assay [1] addresses T1, Melanocortin receptor 5 (Homo sapiens, UniProt P33032). The assay can be described thus: Activity against human MC5R by percentage of cAMP accumulation at 10 uM. It is filed as functional. Background: Changes in cAMP serve as a functional read-out for many G protein-coupled receptors.
Assay [2] concerns the target T2, Melanocortin receptor 3 (Homo sapiens, UniProt P41968). The assay can be described thus: Activity against human MC3R by percentage of cAMP accumulation at 10 uM. The format is functional.
In assay [3] the target is T2, Melanocortin receptor 3. The assay can be described thus: Activity against human MC3R by cAMP accumulation. The format is functional.
In assay [4] the target is T3, Melanocyte-stimulating hormone receptor (Homo sapiens, UniProt Q01726). The assay can be described thus: Displacement of [125I]NDP-alpha-MSH from human MC1BR expressed in CHO cells. The format is cell-based. In general terms: Loss of bound radioactivity is the signal in a displacement assay; it reports binding, not function.
Target sequence in this assay (Q01726 whole entry): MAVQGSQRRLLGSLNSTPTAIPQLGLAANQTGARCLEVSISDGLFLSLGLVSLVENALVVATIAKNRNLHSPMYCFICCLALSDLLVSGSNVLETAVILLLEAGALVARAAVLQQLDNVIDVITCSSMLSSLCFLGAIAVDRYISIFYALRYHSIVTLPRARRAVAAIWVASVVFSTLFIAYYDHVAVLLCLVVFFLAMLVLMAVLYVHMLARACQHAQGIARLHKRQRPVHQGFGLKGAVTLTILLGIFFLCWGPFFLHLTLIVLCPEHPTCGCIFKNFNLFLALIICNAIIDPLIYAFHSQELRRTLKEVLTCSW
In assay [5] the target is T1, Melanocortin receptor 5. The assay can be described thus: Activity against human MC5R by cAMP accumulation. The format is functional.
Assay [6] addresses T4, Melanocortin receptor 4 (Homo sapiens, UniProt P32245). The assay can be described thus: Displacement of [125I]NDP-alpha-MSH from human MC4R expressed in CHO cells. It is filed as cell-based.
Assay [7] addresses T4, Melanocortin receptor 4. The assay can be described thus: Activity against human MC4R by percentage of cAMP accumulation at 10 uM. It is filed as functional.
Assay [8] has as its target T1, Melanocortin receptor 5. The assay can be described thus: Displacement of [125I]NDP-alpha-MSH from human MC5R expressed in CHO cells. It is filed as cell-based.
Assay [9] addresses T4, Melanocortin receptor 4. The assay can be described thus: Activity against human MC4R by cAMP accumulation. The format is functional.
The target of assay [10] is T2, Melanocortin receptor 3. The assay can be described thus: Displacement of [125I]NDP-alpha-MSH from human MC3R expressed in CHO cells. It is filed as cell-based.
The target in assay [11] is T3, Melanocyte-stimulating hormone receptor. The assay can be described thus: Activity against human MC1BR by cAMP accumulation. It is filed as functional.
Target sequence in this assay (Q01726 whole entry): as above
Assay [12] has the same target. The assay can be described thus: Activity against human MC1R by percentage of cAMP accumulation at 10 uM. The format is functional.
Target sequence in this assay (Q01726 whole entry, looked up): as the sequence (Q01726 whole entry) above

T1 sequence (P33032 whole entry): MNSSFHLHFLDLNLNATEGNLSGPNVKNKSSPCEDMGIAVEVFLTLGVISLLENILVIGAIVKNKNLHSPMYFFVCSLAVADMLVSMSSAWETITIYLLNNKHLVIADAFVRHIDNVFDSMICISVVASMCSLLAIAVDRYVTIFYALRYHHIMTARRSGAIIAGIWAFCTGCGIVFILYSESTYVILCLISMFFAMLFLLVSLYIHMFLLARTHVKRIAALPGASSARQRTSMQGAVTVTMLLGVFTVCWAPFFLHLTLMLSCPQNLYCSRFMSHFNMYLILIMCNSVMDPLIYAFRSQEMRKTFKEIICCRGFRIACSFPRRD
T2 sequence (P41968 whole entry): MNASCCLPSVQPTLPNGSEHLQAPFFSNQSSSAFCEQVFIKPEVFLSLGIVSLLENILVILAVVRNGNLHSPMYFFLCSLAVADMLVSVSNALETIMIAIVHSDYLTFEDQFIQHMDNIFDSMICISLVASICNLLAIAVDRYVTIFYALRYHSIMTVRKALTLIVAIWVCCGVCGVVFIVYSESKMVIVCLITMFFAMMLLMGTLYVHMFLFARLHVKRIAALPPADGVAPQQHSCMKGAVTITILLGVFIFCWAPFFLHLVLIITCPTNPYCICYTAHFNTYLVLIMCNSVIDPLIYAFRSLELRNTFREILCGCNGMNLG
T4 sequence (P32245 whole entry): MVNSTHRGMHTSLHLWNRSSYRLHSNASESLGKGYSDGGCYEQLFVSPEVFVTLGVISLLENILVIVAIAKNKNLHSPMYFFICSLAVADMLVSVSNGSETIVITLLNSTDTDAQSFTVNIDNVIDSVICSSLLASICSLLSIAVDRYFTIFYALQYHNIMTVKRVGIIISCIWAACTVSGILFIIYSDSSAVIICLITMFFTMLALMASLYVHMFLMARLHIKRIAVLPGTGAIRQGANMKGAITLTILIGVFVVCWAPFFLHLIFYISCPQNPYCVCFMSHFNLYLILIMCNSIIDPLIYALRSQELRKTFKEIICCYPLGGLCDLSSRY

In general, EC50 refers to the concentration that produces a half-maximal response. A low value points to a more potent agent. As usually defined, the IC50 is the point on the concentration scale where inhibition reaches its midpoint. The low end stands for greater potency, the high end for weaker potency. Regarding `CN1CCN(CC2(C3CCCCC3)CCN(C(=O)[C@@H](Cc3ccc(Cl)cc3)NC(=O)[C@H]3Cc4ccccc4CN3)CC2)C1=O`, the %max was 63% on Melanocortin receptor 5 [1], 24% on Melanocortin receptor 3 [2], 88% on Melanocortin receptor 4 [7] and 43% in [12]. The EC50 at Melanocortin receptor 3 [3] came to 1200 nM; at Melanocortin receptor 5 [5] it was 460 nM; at Melanocortin receptor 4 [9] it was 16 nM; in [11], 950 nM. Also, the IC50 in [4] was determined as 1800 nM; on Melanocortin receptor 4 [6], 4.3 nM; on Melanocortin receptor 5 [8], 160 nM; on Melanocortin receptor 3 [10] it was 660 nM.

Take `O=C(N[C@H](Cc1ccc(Cl)cc1)C(=O)N1CCC(Cn2cncn2)(C2CCCCC2)CC1)[C@H]1Cc2ccccc2CN1`: the values for the %max (at Melanocortin receptor 5 [1]; at Melanocortin receptor 3 [2]; in assay [12]) were 61%, 32% and 95%, respectively.

For `CCOC(=O)N(CC1(C2CCCCC2)CCN(C(=O)[C@@H](Cc2ccc(Cl)cc2)NC(=O)[C@H]2Cc3ccccc3CN2)CC1)C(C)C`, the %max at Melanocortin receptor 5 [1] is 51%; at Melanocortin receptor 3 [2] it was 37%; on Melanocortin receptor 4 [7], 95%; in [12], 26%. Besides, the EC50 worked out at 550 nM on Melanocortin receptor 3 [3], 3600 nM on Melanocortin receptor 5 [5], 14 nM on Melanocortin receptor 4 [9] and 970 nM in assay [11]. Also, the IC50 stood at 1100 nM in assay [4], 8.1 nM on Melanocortin receptor 4 [6], 630 nM on Melanocortin receptor 5 [8] and 630 nM on Melanocortin receptor 3 [10].

For the compound `C[C@@H]1COC(=O)N1CC1(C2CCCCC2)CCN(C(=O)[C@@H](Cc2ccc(Cl)cc2)NC(=O)[C@H]2Cc3ccccc3CN2)CC1`, the %max at Melanocortin receptor 5 [1] turned out to be 51%; at Melanocortin receptor 3 [2], 15%; at Melanocortin receptor 4 [7] it was 68%; in assay [12], 40%. Besides, the EC50 on Melanocortin receptor 3 [3] stood at 370 nM; at Melanocortin receptor 5 [5], 400 nM; on Melanocortin receptor 4 [9], 1.3 nM; in [11], 1300 nM. The IC50 in [4] worked out at 1700 nM; at Melanocortin receptor 4 [6], 1.3 nM; on Melanocortin receptor 5 [8], 110 nM; on Melanocortin receptor 3 [10], 210 nM.

Regarding `CC1(C)CCN(CC2(C3CCCCC3)CCN(C(=O)[C@@H](Cc3ccc(Cl)cc3)NC(=O)[C@H]3Cc4ccccc4CN3)CC2)S1(=O)=O`, the %max on Melanocortin receptor 5 [1] was 39%; at Melanocortin receptor 3 [2], 18%; on Melanocortin receptor 4 [7], 74%; in [12], 27%. Moreover, the EC50 came out at 450 nM at Melanocortin receptor 3 [3], 850 nM at Melanocortin receptor 5 [5], 5.8 nM at Melanocortin receptor 4 [9] and 460 nM in assay [11]. In addition, the IC50 amounted to 1200 nM in assay [4], 0.62 nM on Melanocortin receptor 4 [6], 190 nM on Melanocortin receptor 5 [8] and 760 nM on Melanocortin receptor 3 [10].

For `O=C(N[C@H](Cc1ccc(Cl)cc1)C(=O)N1CCC(CN2C(=O)OCC23CCC3)(C2CCCCC2)CC1)[C@H]1Cc2ccccc2CN1`, the %max at Melanocortin receptor 5 [1] stood at 32%; at Melanocortin receptor 3 [2], 6%; at Melanocortin receptor 4 [7], 65%; in assay [12], 25%. For the same compound, the IC50 in assay [4] is 2100 nM; at Melanocortin receptor 4 [6] it was 7.9 nM; on Melanocortin receptor 5 [8], 210 nM; at Melanocortin receptor 3 [10], 400 nM. In addition, the EC50 at Melanocortin receptor 5 [5] stood at 1200 nM; on Melanocortin receptor 4 [9] it was 15 nM; in [11] it was 1700 nM.

Regarding `CC(C)N(CC1(C2CCCCC2)CCN(C(=O)[C@@H](Cc2ccc(Cl)cc2)NC(=O)[C@H]2Cc3ccccc3CN2)CC1)S(C)(=O)=O`, the %max is 48% on Melanocortin receptor 5 [1], 23% on Melanocortin receptor 3 [2], 86% at Melanocortin receptor 4 [7] and 39% in assay [12]. Besides, the EC50 at Melanocortin receptor 3 [3] is 590 nM; at Melanocortin receptor 5 [5], 800 nM; on Melanocortin receptor 4 [9], 5.6 nM; in [11], 1500 nM. Besides, the IC50 came out at 1300 nM in assay [4], 2.1 nM on Melanocortin receptor 4 [6], 200 nM on Melanocortin receptor 5 [8] and 380 nM on Melanocortin receptor 3 [10].

Take `O=C(N[C@H](Cc1ccc(Cl)cc1)C(=O)N1CCC(CN2C(=O)OCC23CC3)(C2CCCCC2)CC1)[C@H]1Cc2ccccc2CN1`: the %max was determined as 36% on Melanocortin receptor 5 [1], 15% at Melanocortin receptor 3 [2], 68% at Melanocortin receptor 4 [7] and 48% in assay [12]. The EC50 amounted to 990 nM at Melanocortin receptor 3 [3], 620 nM on Melanocortin receptor 5 [5], 6.1 nM on Melanocortin receptor 4 [9] and 2600 nM in assay [11]. The IC50 in [4] was 2400 nM; at Melanocortin receptor 4 [6], 4.6 nM; at Melanocortin receptor 5 [8], 170 nM; at Melanocortin receptor 3 [10], 490 nM.

On to `O=C(N[C@H](Cc1ccc(Cl)cc1)C(=O)N1CCC(CN2CCCS2(=O)=O)(C2CCCCC2)CC1)[C@H]1Cc2ccccc2CN1`, for which the %max was found to be 41% on Melanocortin receptor 5 [1], 19% at Melanocortin receptor 3 [2], 67% on Melanocortin receptor 4 [7] and 41% in [12]. The EC50 on Melanocortin receptor 3 [3] came to 540 nM; on Melanocortin receptor 5 [5], 660 nM; on Melanocortin receptor 4 [9] it was 5.3 nM; in [11] it was 680 nM. Moreover, the IC50 in [4] amounted to 1300 nM; on Melanocortin receptor 4 [6], 0.91 nM; at Melanocortin receptor 5 [8] it was 170 nM; on Melanocortin receptor 3 [10], 310 nM.

Consider `O=C(N[C@H](Cc1ccc(Cl)cc1)C(=O)N1CCC(CN2CCOC2=O)(C2CCCCC2)CC1)[C@H]1Cc2ccccc2CN1`, for which the %max came out at 48% on Melanocortin receptor 5 [1], 11% on Melanocortin receptor 3 [2], 76% at Melanocortin receptor 4 [7] and 56% in assay [12]. The IC50 in assay [4] came out at 2000 nM; on Melanocortin receptor 4 [6], 4 nM; at Melanocortin receptor 5 [8], 180 nM; at Melanocortin receptor 3 [10], 460 nM. Further, the EC50 worked out at 280 nM on Melanocortin receptor 5 [5], 5.8 nM on Melanocortin receptor 4 [9] and 1300 nM in [11].

Turning to `C[C@H]1COC(=O)N1CC1(C2CCCCC2)CCN(C(=O)[C@@H](Cc2ccc(Cl)cc2)NC(=O)[C@H]2Cc3ccccc3CN2)CC1`, the %max on Melanocortin receptor 5 [1] turned out to be 53%; on Melanocortin receptor 3 [2], 19%; at Melanocortin receptor 4 [7] it was 90%; in assay [12], 72%. For the same compound, the EC50 was determined as 640 nM on Melanocortin receptor 3 [3], 400 nM at Melanocortin receptor 5 [5], 8.6 nM on Melanocortin receptor 4 [9] and 2100 nM in assay [11]. Besides, the 50% inhibitory concentration (IC50) in assay [4] is 2400 nM; on Melanocortin receptor 4 [6] it was 4.5 nM; on Melanocortin receptor 5 [8] it was 220 nM; at Melanocortin receptor 3 [10] it was 840 nM.

`O=C(N[C@H](Cc1ccc(Cl)cc1)C(=O)N1CCC(CN2CCNC2=O)(C2CCCCC2)CC1)[C@H]1Cc2ccccc2CN1`: the %max is 48% on Melanocortin receptor 5 [1], 23% at Melanocortin receptor 3 [2], 82% at Melanocortin receptor 4 [7] and 39% in [12]. For the same compound, the EC50 on Melanocortin receptor 3 [3] came to 880 nM; on Melanocortin receptor 5 [5], 480 nM; at Melanocortin receptor 4 [9], 16 nM; in assay [11], 980 nM. Moreover, the IC50 in assay [4] was 1100 nM; on Melanocortin receptor 4 [6] it was 4.8 nM; at Melanocortin receptor 5 [8], 150 nM; on Melanocortin receptor 3 [10], 520 nM.

For `CC1(C)COC(=O)N1CC1(C2CCCCC2)CCN(C(=O)[C@@H](Cc2ccc(Cl)cc2)NC(=O)[C@H]2Cc3ccccc3CN2)CC1`, the %max is 38% on Melanocortin receptor 5 [1], 6% on Melanocortin receptor 3 [2], 82% at Melanocortin receptor 4 [7] and 35% in assay [12]. Besides, the IC50 in assay [4] is 1100 nM; on Melanocortin receptor 4 [6], 0.8 nM; on Melanocortin receptor 5 [8], 80 nM; on Melanocortin receptor 3 [10], 230 nM. Further, the EC50 is 340 nM on Melanocortin receptor 5 [5], 2.4 nM at Melanocortin receptor 4 [9] and 550 nM in [11].
